Experimental data from the CheMixHub ionic liquid set.
“And” between values parts separate entries of the source, which are not always exact repeats. Equal values may be shown once. ± gives the uncertainty stated by the source.

Assay: xn = mol fraction of the nth substance listed

CCCC[P+](CCCC)(CCCC)CCCC.CS(=O)(=O)[O-] + O=S1(=O)CCCC1
101.33 kPa, x1 = 0.5
Conditions	viscosity [mPa·s]
303.15 K	136 ± 30
313.15 K	84 ± 17
323.15 K	50 ± 10
333.15 K	34.6 ± 7
343.25 K	24.6 ± 5
353.25 K	18.7 ± 3.8

CCCCCCCCCCCC[n+]1ccn(C)c1.[Br-] + O
298.15 K, 100 kPa, frequency 0.001 MHz
Conditions	electrical conductivity [S/m]
x1 = 3.604e-05	0.018 ± 0.018
x1 = 7.207e-05	0.036 ± 0.019
x1 = 9.009e-05	0.045 ± 0.018
x1 = 0.0001081	0.054 ± 0.018
x1 = 0.0001261	0.065 ± 0.018
x1 = 0.0001441	0.072 ± 0.014
x1 = 0.0001622	0.081 ± 0.014
x1 = 0.0001802	0.089 ± 0.01
x1 = 0.0002522	0.101 ± 0.0055
x1 = 0.0003242	0.111 ± 0.005

CCCCn1cc[n+](CCCC)c1.O=S(=O)([N-]S(=O)(=O)C(F)(F)F)C(F)(F)F + O
100 kPa, x2 = 0.1843
Conditions	viscosity [mPa·s]
308.15 K	32.12 ± 0.28
358.15 K	7.83 ± 0.07
363.15 K	7.07 ± 0.06

CCCC[n+]1ccn(C)c1.N#C[N-]C#N + [I-].[Li+]
101 kPa, x1 = 1
Conditions	electrical conductivity [S/m]
288.15 K	0.611 ± 0.061
298.15 K	0.883 ± 0.089
333.15 K	2.18 ± 0.22

CCCC[n+]1ccn(C)c1.N#C[N-]C#N + O=[N+]([O-])[O-].[Li+]
electrical conductivity [S/m], 101 kPa
Conditions	x1 = 0.7634	x1 = 0.8104	x1 = 0.859	x1 = 0.9137	x1 = 0.9799	x1 = 1
288.15 K	–	0.155 ± 0.016	0.246 ± 0.025	0.377 ± 0.038	0.599 ± 0.06	0.596 ± 0.06
298.15 K	0.193 ± 0.02	0.272 ± 0.028	0.417 ± 0.042	0.612 ± 0.062	0.924 ± 0.093	0.925 ± 0.093
333.15 K	0.902 ± 0.09	1.17 ± 0.12	1.47 ± 0.15	1.95 ± 0.2	2.6 ± 0.26	2.77 ± 0.28

NCC(=O)O + CCCCCCCCCCCC[N+](C)(C)Cc1ccccc1.[Cl-] + O
electrical conductivity [S/m], 101 kPa
Conditions	293.15 K	298.15 K	303.15 K	308.15 K	313.15 K
x1 = 0.0008876, x2 = 0	0.000384 ± 2.4e-05	0.000431 ± 2.7e-05	0.000492 ± 3.1e-05	0.000549 ± 3.5e-05	0.000613 ± 3.9e-05
x1 = 0.001759, x2 = 0	0.00074 ± 4.7e-05	0.000839 ± 5.3e-05	0.000945 ± 6e-05	0.00106 ± 6.7e-05	0.00118 ± 7.5e-05

CCCCc1n(S(=O)(=O)O)cc[n+]1S(=O)(=O)O.O=C([O-])C(F)(F)F + CC#N
101 kPa
Conditions	electrical conductivity [S/m]
278.15 K, x1 = 0.02551	1.24 ± 0.025
283.15 K, x1 = 0.02551	1.19 ± 0.024
288.15 K, x1 = 0.02551	1.07 ± 0.021
293.15 K, x1 = 0.02551	0.944 ± 0.019
298.15 K, x1 = 0.0052	0.359 ± 0.007
298.15 K, x1 = 0.0104	0.425 ± 0.009
298.15 K, x1 = 0.0155	0.554 ± 0.011
298.15 K, x1 = 0.0205	0.632 ± 0.013
298.15 K, x1 = 0.0255	0.899 ± 0.018
298.15 K, x1 = 0.02551	0.899 ± 0.018
303.15 K, x1 = 0.02551	0.665 ± 0.013
308.15 K, x1 = 0.02551	0.646 ± 0.013
313.15 K, x1 = 0.02551	0.545 ± 0.011
318.15 K, x1 = 0.02551	0.521 ± 0.01
323.15 K, x1 = 0.02551	0.468 ± 0.009
328.15 K, x1 = 0.02551	0.457 ± 0.009
333.15 K, x1 = 0.02551	0.423 ± 0.008

CCCC[n+]1ccn(C)c1.N#C[N-]C#N + O
100 kPa, x1 = 0.6252
Conditions	viscosity [mPa·s]
303 K	15.03 ± 0.33
308 K	12.94 ± 0.28
313 K	11.27 ± 0.25
318 K	9.91 ± 0.21
323 K	8.77 ± 0.19

CC[N+](CC)(CC)CC.[Cl-] + CC(=O)CCC(=O)O
101.3 kPa, x1 = 0.3333
Conditions	viscosity [mPa·s]
298.15 K	140 ± 19
308.15 K	83.8 ± 5.8
318.15 K	52.7 ± 0.82
328.15 K	33 ± 1.1
338.15 K	20.23 ± 0.7

C[n+]1ccn(CCCCCn2cc[n+](C)c2)c1.O=S(=O)([N-]S(=O)(=O)C(F)(F)F)C(F)(F)F.O=S(=O)([N-]S(=O)(=O)C(F)(F)F)C(F)(F)F + OCCOCCOCCOCCO
viscosity, 101 kPa
Conditions	293.15 K	303.15 K	313.15 K	323.15 K	333.15 K
x1 = 0.3283	178.4 ± 8 mPa·s	93.1 ± 2.7 mPa·s	56.5 ± 1.3 mPa·s	36.2 ± 0.9 mPa·s	22.4 ± 0.5 mPa·s
x1 = 0.55	448 ± 33 mPa·s	233 ± 12 mPa·s	128 ± 4.7 mPa·s	81.7 ± 2.2 mPa·s	54.9 ± 1.2 mPa·s
x1 = 0.7097	627 ± 54 mPa·s	316 ± 20 mPa·s and 318 ± 20 mPa·s	177.9 ± 8 mPa·s and 180.1 ± 8.2 mPa·s	107.7 ± 3.5 mPa·s	67.9 ± 1.6 mPa·s
x1 = 1	1125 ± 120 mPa·s	555 ± 45 mPa·s	313 ± 20 mPa·s	192.3 ± 9 mPa·s	123.2 ± 4.4 mPa·s

CCCC[n+]1ccn(C)c1.N#C[S-] + c1ccsc1
viscosity [mPa·s], 100 kPa
Conditions	x2 = 0	x2 = 0.103	x2 = 0.143	x2 = 0.246	x2 = 0.61	x2 = 0.701
298.15 K	57.4 ± 1.8	47.2 ± 2.4	42.9 ± 2.2	32 ± 1.7	13.36 ± 0.73	9.93 ± 0.56
308.15 K	37.4 ± 2	31.4 ± 1.6	28.7 ± 1.5	22 ± 1.2	9.94 ± 0.56	7.57 ± 0.44
318.15 K	25.8 ± 1.4	22.1 ± 1.2	20.4 ± 1.1	15.96 ± 0.86	7.67 ± 0.44	5.96 ± 0.36
328.15 K	18.7 ± 1	16.22 ± 0.88	15.07 ± 0.82	12.02 ± 0.67	6.1 ± 0.37	4.83 ± 0.3

OCC(F)(F)F + CCCC[n+]1ccn(C)c1.O=S(=O)([N-]S(=O)(=O)C(F)(F)F)C(F)(F)F
101 kPa
Conditions	viscosity [mPa·s]
278.15 K, x1 = 0.2626	65.4 ± 1.3
278.15 K, x1 = 0.4753	30.28 ± 0.61
278.15 K, x1 = 0.6153	16.99 ± 0.34
278.15 K, x1 = 0.7568	9.09 ± 0.18
293.15 K, x1 = 0.6153	10.18 ± 0.21
298.15 K, x1 = 0.2626	27.45 ± 0.56
298.15 K, x1 = 0.7568	5.03 ± 0.1
313.15 K, x1 = 0.4753	9.42 ± 0.19
318.15 K, x1 = 0.4753	8.31 ± 0.17
323.15 K, x1 = 1	1.02 ± 0.02
333.15 K, x1 = 0.2626	9.76 ± 0.2

CCCCCCCO + CCCC[n+]1ccn(C)c1.O=S(=O)([N-]S(=O)(=O)C(F)(F)F)C(F)(F)F
298 K, 100 kPa
Conditions	viscosity [mPa·s]
x2 = 0	5.956 ± 0.065
x2 = 0.7975	33.43 ± 0.76
x2 = 0.9013	40.9 ± 1
